Columns and labels:
LPAR1 = molecular target: T1, LPAR1 (Homo sapiens, UniProt Q92633); assay: LPAR1 FLIPR Assay; type: cell-based; settings: U2OS cells stably expressing LPAR1, LPA (EC80), Calcium 6 FLIPR dye; for Emax: read-out: Maximum Inhibition
T1 construct: host or cells: U2OS
Method: U2OS cells stably expressing LPAR1 (Life Technologies #K1519A) were plated at 12000 cells/well in growth medium (McCoy's 5A medium(Life Technologies 16600-082)) with 10% dFBS (Life Technologies 26400-036), 0.1 mM non-essential amino acids, 25 mM HEPES, 1 mM sodium pyruvate, 1% penicillin/streptomycin, 50 μg/mL hygromycin, and 100 μg/mL Geneticin® in black-walled, clear-bottom 384-well plates (Corning #3683) and incubated in humidified 5% CO2 at 37° C. overnight. On the day of the assay, medium was removed and 30 μL of 5% Calcium 6 FLIPR dye in assay buffer-HBSS (Life Technologies #14025) containing 20 mM HEPES (Life Technologies #15630-080) was added to the cells. Cells were incubated at 37° C. in the dark for 2 hours. Compounds were 3-fold serial diluted from 10 mM for 11-points using dimethyl sulfoxide. 1 μL of compound in DMSO was diluted in 82.3 μL assay buffer immediately before the assay. Using a FLIPR® TETRA® system, 15 μL of the (4×) compound solutions were first added to the cells, then 15 μL of LPA (EC80) diluted in of assay buffer supplemented with 0.1% BSA was added 3 minutes later to activate the receptor. Changes in fluorescence were measured at wavelengths of 515-575 nm over the course of the experimental run. IC50 values were calculated from curve fits of the ratio data using a four-parameter logistic Hill equation (Assay Explorer 3.3 Client).

[1] = test system: LPA-induced MCP-1 in NRK-49F cells; assay: LPA-induced MCP-1 AlphaLISA assay; type: cell-based; settings: Rattus norvegicus, final LPA 10 μM, 7 hours; for Emax: read-out: Maximum Inhibition
Method: Two days prior to the experiment, NRK-49F cells were plated at 8,000 cells/well in 100 μL of growth medium [DMEM (Life Technologies #11995) with 5% dFBS (Life Technologies #30067-334), 100 units/mL penicillin/streptomycin (Life Technologies #15140122)] in 96-well clear flat bottom polystyrene TC-treated microplate (Corning® #3599) and incubated in humidified 10% CO2 at 37° C. One day prior to the experiment, the cell medium was removed and serum free medium [100 μL/well, DMEM (Life Technologies #11995) with 0.1% fatty acid free BSA (Sigma #A6003)] was added with continued incubation in humidified 10% CO2 at 37° C. overnight. On the day of the assay, test compounds were 1:3 serially diluted in 100% DMSO using a BioTek Precision™ system and then transferred (equivalent volume of DMSO as controls) to a plate in serum free medium [DMEM with 0.1% fatty acid free BSA] using a Biomek® NX workstation to give a 2× compound solution. The cell culture medium was removed, and cells were pre-treated with 50 μL/well of 2× compound in serum free medium [DMEM with 0.1% fatty acid free BSA] at 37° C. for 30 minutes. Following the incubation, 50 μL/well of 20 μM LPA diluted in serum free medium [DMEM with 0.1% fatty acid free BSA] was added to the cells. Serum free medium [DMEM with 0.1% fatty acid free BSA] was used as substitution for low control wells while 20 µM LPA was added to high control wells and test compound wells. 200 µM LPA was added to EC100 wells. Final DMSO concentration was 1% in every well. Final LPA concentration in test compound wells and high control wells was 10 μM. […] After the incubation, cell supernatant was transferred to a new 96 well polypropylene plate (Greiner #651201) where it was sealed and stored at −80° C. On the detection day, 5 μL of thawed cell supernatant was transferred to a new white opaque 384-well microplate (Perkin Elmer #6007299). An AlphaLISA® mouse/rat CCL2/MCP1, Immunoassay Research kit (PerkinElmer #AL509F) was used. A mixture (20 μL/well) of AlphaLISA® Anti-Analyte Accept beads (10 μg/mL final) and Biotinylated Antibody Anti-Analyte (freshly prepared, 1 nM final) was added. The mixture in the wells was mixed and then incubated at room temperature for 1 hour. Then SA-Donor beads (25 μL/well, 40 μg/mL final) were added giving a final volume of 50 μL/well. The contents of the wells were mixed and then incubated at room temperature for 0.5 hour (protect from light). The plate was read using the default Envision™ Alpha protocol (PerkinElmer). IC50 values were calculated from curve fits of the ratio data using a four-parameter logistic Hill equation (Assay Explorer 3.3 Client).

T1 sequence (Q92633 whole entry): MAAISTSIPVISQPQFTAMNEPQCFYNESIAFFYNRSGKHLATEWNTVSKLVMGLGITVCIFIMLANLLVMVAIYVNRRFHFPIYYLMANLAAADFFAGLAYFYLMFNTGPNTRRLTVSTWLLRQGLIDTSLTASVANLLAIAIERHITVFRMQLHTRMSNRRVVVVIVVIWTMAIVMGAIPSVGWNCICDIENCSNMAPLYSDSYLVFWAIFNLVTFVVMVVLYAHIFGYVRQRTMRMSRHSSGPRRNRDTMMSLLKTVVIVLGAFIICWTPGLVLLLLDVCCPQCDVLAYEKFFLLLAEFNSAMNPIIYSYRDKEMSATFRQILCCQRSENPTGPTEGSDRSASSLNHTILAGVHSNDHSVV

Compound | IC50 (LPAR1) | Emax (LPAR1) | IC50 [1] | Maximum Inhibition (LPAR1) | Emax [1]
COc1ccc(C(=O)N(CCCCC(=O)O)CCCc2ccccc2)cc1 [Example 84, 5-[(4-methoxybenzoyl)(3-phenylpropyl)amino]pentanoic Acid] | > 30000 nM | 7% | > 10000 nM |  | 31%
COc1cc(OC)c([N+](=O)[O-])c(C(=O)N(CCCCC(=O)O)CCCc2ccccc2)c1 [Example 19, 5-[(3,5-dimethoxy-2-nitrobenzoyl)(3-phenylpropyl)amino]pentanoic Acid] | 71 nM | 98% | 783 nM |  | 84%
COc1cc(C(=O)N(CCCCC(=O)NS(=O)(=O)c2cccnc2)CCCc2ccccc2)cc(OC)c1C [Example 142, 3,5-dimethoxy-4-methyl-N-{5-oxo-5-[(pyridine-3-sulfonyl)amino]pentyl}-N-(3-phenylpropyl)benzamide] | 76 nM | 88% | 831 nM |  | 90%
COc1cc(C(=O)N(CCCc2ccccc2)CCCC(O)C(=O)O)cc(OC)c1C1CC1 (stereo not shown) [Example 165, 5-[(4-cyclopropyl-3,5-dimethoxybenzoyl)(3-phenylpropyl)amino]-2-hydroxypentanoic Acid] | 45 nM | 83% | 2730 nM |  | 70%
COc1ccc(C(=O)N(CCCCC(=O)O)CCCc2ccccc2)cc1OC [Example 83, 5-[(3,4-dimethoxybenzoyl)(3-phenylpropyl)amino]pentanoic Acid] | > 30000 nM | 25% | > 10000 nM |  | 11%
COc1ccc(C2(C(=O)N(CCCCC(=O)O)CCCc3ccccc3)CCCC2)cc1 [Example 106, 5-{[1-(4-methoxyphenyl)cyclopentane-1-carbonyl](3-phenylpropyl)amino}pentanoic Acid] | 766 nM | 55% |  |  | 
O=C(O)CCCCN(CCCc1ccccc1)C(=O)C1(c2ccc(OC(F)(F)F)cc2)CC1 [Example 25, 5-[(3-phenylpropyl){1-[4-(trifluoromethoxy)phenyl]cyclopropane-1-carbonyl}amino]pentanoic Acid] | 29300 nM | 48% |  |  | 
COc1cc(OC(F)(F)F)cc(C(=O)N(CCCCC(=O)O)CCCc2ccccc2)c1 [Example 29, 5-{[3-methoxy-5-(trifluoromethoxy)benzoyl](3-phenylpropyl)amino}pentanoic Acid] | 309 nM | 79% |  |  | 
COc1cc(C(=O)N(CCCCC(=O)O)[C@H](C)CCc2ccccc2)cc(OC)c1C [Example 153, 5-{(3,5-dimethoxy-4-methylbenzoyl)[(2R)-4-phenylbutan-2-yl]amino}pentanoic Acid] | 127 nM | 83% |  |  | 
Cc1c(Cl)cc(C(=O)N(CCCCC(=O)O)CCCc2ccccc2)cc1Cl [Example 16, 5-[(3,5-dichloro-4-methylbenzoyl)(3-phenylpropyl)amino]pentanoic Acid] | 985 nM | 70% |  |  | 
O=C(O)CCCCN(CCCc1ccccc1)C(=O)c1ccc2c(c1)OCCCO2 [Example 23, 5-[(3,4-dihydro-2H-1,5-benzodioxepine-7-carbonyl)(3-phenylpropyl)amino]pentanoic Acid] | 12600 nM | 53% |  |  | 
COc1ccc2c(C(=O)N(CCCCC(=O)O)CCCc3ccccc3)c[nH]c2c1 [Example 65, 5-[(6-methoxy-1H-indole-3-carbonyl)(3-phenylpropyl)amino]pentanoic Acid] | 5020 nM | 49% |  |  | 
COc1cc(C(=O)N(CCCc2ccccc2)CCSCC(=O)O)cc(OC)c1F [Example 100, ({2-[(4-fluoro-3,5-dimethoxybenzoyl)(3-phenylpropyl)amino]ethyl}sulfanyl)acetic Acid] | > 30000 nM | 60% |  |  | 
O=C(O)CCCCN(CCCc1ccccc1)C(=O)C1CC(=O)Nc2ccc(F)cc21 (stereo not shown) [Example 168, 5-[(6-fluoro-2-oxo-1,2,3,4-tetrahydroquinoline-4-carbonyl)(3-phenylpropyl)amino]pentanoic Acid] | 1100 nM | 62% |  |  | 
COc1c(F)cc(C(=O)N(CCCCC(=O)O)CCCc2ccccc2)cc1F [Example 13, 5-[(3,5-difluoro-4-methoxybenzoyl)(3-phenylpropyl)amino]pentanoic Acid] | 6170 nM | 48% |  |  | 
COc1ccc(C2(C(=O)N(CCCCC(=O)O)CCCc3ccccc3)CC(OC)C2)cc1 (stereo not drawn) [Example 158, 5-{[cis-3-methoxy-1-(4-methoxyphenyl)cyclobutane-1-carbonyl](3-phenylpropyl)amino}pentanoic Acid] | 511 nM |  |  | 98% | 
COc1cc(C(=O)N(CCCc2ccccc2)CC[S+]([O-])CC(=O)O)cc(OC)c1C (stereo not shown) [Example 53, {2-[(3,5-dimethoxy-4-methylbenzoyl)(3-phenylpropyl)amino]ethanesulfinyl}acetic Acid] | 239 nM | 63% |  |  | 

Continued, in another order:

IC50 (LPAR1) | Emax (LPAR1) | IC50 [1] | Maximum Inhibition (LPAR1) | Compound | Emax [1]
46 nM | 94% | 793 nM |  | CCS(=O)(=O)NC(=O)CCCCN(CCCc1ccccc1)C(=O)c1cc(OC)c(C)c(OC)c1 [Example 123, N-{5-[(ethanesulfonyl)amino]-5-oxopentyl}-3,5-dimethoxy-4-methyl-N-(3-phenylpropyl)benzamide] | 85%
92 nM | 64% | > 10000 nM |  | COc1cc(OC)cc(C(=O)N(CCCCC(=O)O)CCCc2c(F)cccc2F)c1 [Example 137, 5-{[3-(2,6-difluorophenyl)propyl](3,5-dimethoxybenzoyl)amino}pentanoic Acid] | 28%
119 nM | 74% | 3890 nM |  | COc1cc(C(=O)N(CCCCC(=O)O)CCCc2cc(F)cc(F)c2)cc(OC)c1C [Example 126, 5-{[3-(3,5-difluorophenyl)propyl](3,5-dimethoxy-4-methylbenzoyl)amino}pentanoic Acid] | 75%
29300 nM | 45% |  |  | COc1cc(C(=O)N(CCCCC(=O)O)CCCc2cccc(C(F)(F)F)c2)cc(OC)c1C [Example 40, 5-[(3,5-dimethoxy-4-methylbenzoyl){3-[3-(trifluoromethyl)phenyl]propyl}amino]pentanoic Acid] | 
24300 nM | 58% |  |  | COc1cc(C(=O)N(CCCCC(=O)O)CCCc2ccc(Cl)cc2Cl)cc(OC)c1C [Example 49, 5-{[3-(2,4-dichlorophenyl)propyl](3,5-dimethoxy-4-methylbenzoyl)amino}pentanoic Acid] | 
600 nM | 83% |  |  | COc1cc(C(=O)N(CCCCC(=O)O)CCCc2ccc(Cl)cc2)cc(OC)c1C [Example 36, 5-{[3-(4-chlorophenyl)propyl](3,5-dimethoxy-4-methylbenzoyl)amino}pentanoic Acid] | 
23300 nM | 55% |  |  | COc1ccc(CCCN(CCCCC(=O)O)C(=O)c2cc(OC)c(C)c(OC)c2)cc1 [Example 43, 5-{(3,5-dimethoxy-4-methylbenzoyl)[3-(4-methoxyphenyl)propyl]amino}pentanoic Acid] | 
